The values that follow come from article PMC5226491, “Efficient therapeutic delivery by a novel cell-permeant peptide derived from KDM4A protein for antitumor and antifibrosis” (Oncotarget, 2016).

The subject of one data set is Caski cells. Format: cell-based, human. The method, then: (§1) Intracellular fluorescence intensity quantification was measured using Multimode Microplate Reader (Tecan 2000; Tecan, Mannedorf, Switzerland). The intracellular uptake of FITC-labeled peptide was performed as described previously. Briefly, after the incubation, cells were washed and then lysed by adding 300 μl lysing buffer (0.1 M NaOH) for 10 min, the cell lysates were harvested and centrifuged (14000 g for 5 min), the supernatant was used to measure the fluorescence intensity. The fluorescence of cellular uptake is expressed as fluorescence intensity per mg of total cellular protein. All experiments were repeated at least three times and always performed in triplicate.

The test system of data set [1] is different cell lines. Briefly: Uptake of FITC-labeled hPP10 in different cell lines. The conditions noted are these: for Effect of temperature on internalization: incubation at 4°C or 37°C, with or without DMSO. Format: cell-based. As to the method: as §1
Data set [2] concerns primary cultured cells (mouse spleen lymphocytes, human peripheral blood lymphocytes, mouse primary fibroblast cells). Kind of data set: Uptake of FITC-labeled hPP10 in primary cultured cells. Format: cell-based. The conditions noted are these: mouse spleen lymphocytes and hPBMCs with 5% DMSO treatment.
Procedure: The internalization of FITC conjugated hPP10 into cultured cells was observed using fluorescence microscopy. All types of cells were plated in 24-well-plates (Greiner, Germany) and cultivated to semi-confluence in RPMI-1640 medium in a CO2 incubator for 24 h at 37°C. Cells were washed with PBS, followed by 5.0 μM FITC-labeled peptide or fusion protein incubation with serum-free medium for 1 h at 37°C, the medium was removed, the cells were further washed with PBS 3 times, and then imaged using fluorescence microscope (Nikon, Japan) with a band-pass filter.
Data set [3] concerns different cell lines.
Procedure: Cells were seeded in 96-well plates at 24 h before treatment. […] MTT solution (5 mg/mL) was added into fresh serum medium for further 4 h incubation. DMSO was used to solubilize formazan, and the absorbance was measured using a Multiskan Spectrum plate reader (Thermo, USA).
The test system of data set [4] is different cell lines. The source holds these as a separate data set.
Procedure: Membrane integrity was assessed by lactate dehydrogenase (LDH) leakage into the culture medium. […] Cell-free supernatant was obtained and transferred to another 96-well-plate; substrate mixture was added to each well for another 10 min enzymatic reaction. Absorbance was measured at 560/590 nm using a Multiskan Spectrum plate-reader (Thermo, USA).

In the case of KIPLPRFKLKCIFCKKRRKR [hPP10], the “Fluorescence of cytosol compared with TAT-FITC” value in the data set on Caski cells was “higher than TAT-FITC group”. In the data set with different cell lines [1] (B16, ECV304, HepG2, T24, L929, HSC-T6, THP1, 5 μM FITC-labeled peptide, 1 h), the “Permeation of cancerous or immortalized cell lines” value was “capable of permeating a wide variety of cancerous or immortalized cell lines”. Also, in data set [2], the “Permeation of primary cultured cells” value is listed as “able to permeate into primary cultured cells”. The “Cytotoxicity, MTT assay” value in the data set on different cell lines [3] was “minimal cytotoxicity”. Moreover, the “Membrane disturbance, LDH release” value in the data set with different cell lines [4] is reported as “low membrane disturbance”.

On to “KIPLPRFKLKCIFCKKRRKR [hPP10-FITC, synthesized FITC-labeled hPP10 peptide]”, for which, in the data set on Caski cells, the “Duration of intracellular fluorescence” value was “long-lasting fluorescence than TAT-FITC”. In the data set with different cell lines [1] (co-incubated with 0.5 U/mL heparin, different cells), the “Effect of heparin on cellular uptake” value is listed as “greatly decreased in the presence of heparin”. Besides, the “Effect of serum on penetrating efficiency” value in the data set on different cell lines [1] (different cell lines, mean ± SD for 3 samples) is listed as “decreased in the presence of serum”. In addition, the “Effect of temperature on internalization” value in the data set on different cell lines [1] is “less energy-sensitive than that of TAT-FITC without DMSO treatment”.

For “YGRKKRRQ RRRK [TAT-FITC, FITC-labeled HIV-1 TAT peptide used for positive control, reference compound]”, in the data set on different cell lines [1], the “Effect of temperature on internalization” value was “energy-dependent with or without DMSO treatment”.
